How the values were obtained:
[1] = Hypotensive effects in the anesthetized dog by the intravenous route; assay type: in vivo; conditions: average of two animals
Procedure: In the use of the compounds of the invention to produce hypotensive effects in warm-blooded animals, administration by the injectable route is preferred, preferably the intravenous route.
Thus in the anesthetized dog by the intravenous route the dose to produce hypotension is from about 1 μg/kg. to about 200 μg/kg. and preferably from about 10 μg/kg. to about 100 μg/kg. Using this procedure the following results were obtained:
*Average of two animals.

[2] = system: bronchoconstricting effects of a standard dose of acetylcholine; experiment: Bronchodilation upon aerosol inhalation, method of Rosenthale et al.; assay type: in vivo; conditions: guinea pig, i.v. acetylcholine producing ca. 30% bronchoconstriction
Text: In using the compounds of the invention to produce bronchodilating effects in warm-blooded animals, they may be administered in a variety of dosage forms: oral, injectable, and aerosol inhalation. Aerosol inhalation is a preferred method because of its rapid onset of action, great potency, and specificity of action. The particular dosage to obtain the bronchodilating effect will vary with the particular compound employed, the particular animal involved, and the degree of bronchodilation desired. In the guinea pig, by aerosol inhalation, the dose to produce bronchodilation is from about 0.15 micrograms to about 25 micrograms, and preferably from about 0.15 to about 15 micrograms. The bronchodilation produced upon aerosol inhalation can be observed by the method of Rosenthale et al., J. Pharmacol. Exp. Ther., 178, 541 (1971). Using this procedure the following results were obtained:
*The dose (i.v. of acetylcholine which produces a ca. 30%

Structure (SMILES)	Δ B.P. ([1]; dose 10 μg/kg.) [mm. Hg.]	Δ B.P. ([1]; dose 100 μg/kg.) [mm. Hg.]	Percent Inhibition of the bronchoconstricting effects of a standard dose of acetylcholine ([2]; dose 0.15 μg) [%]	Percent Inhibition of the bronchoconstricting effects of a standard dose of acetylcholine ([2]; dose 1.50 μg) [%]	Percent Inhibition of the bronchoconstricting effects of a standard dose of acetylcholine ([2]; dose 15 μg) [%]
CC(C)(c1ccccc1)[C@H](O)CC[C@H]1CCC(=O)[C@@H]1CCCCCCC(=O)O (relative stereo) [dl-2β-[(3R)-3-Hydroxy-4,4-Dimethyl-4-Phenyl-1-Butyl]-5-Oxo-1α-Cyclopentane Heptanoic Acid]	-14	-26	–	–	–
CC(C)(Cc1ccccc1)[C@H](O)/C=C/[C@H]1CCC(=O)[C@@H]1CCCCCCC(=O)O (relative stereo) [dl-2β-[(3R)-3-Hydroxy-4,4-Dimethyl-5-Phenyl-trans-1-Pentenyl]-5-Oxo-Cyclopentane Heptanoic Acid]	–	–	46	66	60
CC(C)(c1ccccc1)[C@H](O)/C=C/[C@H]1CCC(=O)[C@@H]1C/C=C\CCCC(=O)O (relative stereo) [dl-7-{2β-[(3R)-3-Hydroxy-4,4-Dimethyl-4-Phenyl-trans-1-Butenyl]-5-Oxo-1α-Cyclopentyl}-cis-5-Heptenoic Acid]	-30	–	–	–	–

Reference: patent US4207419A, “Prostaglandin derivatives” (American Home Products Corporation, priority 1977, dated 1980)
